{
  "source": "patent US8822449B2",
  "about": "“Substituted aminoindanes and analogs thereof, and the pharmaceutical use thereof” (Sanofi, priority 2008, dated 2014)",
  "target": "T1, sodium-proton exchanger of subtype 3 (NHE3) (Homo sapiens, UniProt P48764)",
  "T1 construct": "expressed in transfected cells",
  "T1 sequence (P48764 26-834)": "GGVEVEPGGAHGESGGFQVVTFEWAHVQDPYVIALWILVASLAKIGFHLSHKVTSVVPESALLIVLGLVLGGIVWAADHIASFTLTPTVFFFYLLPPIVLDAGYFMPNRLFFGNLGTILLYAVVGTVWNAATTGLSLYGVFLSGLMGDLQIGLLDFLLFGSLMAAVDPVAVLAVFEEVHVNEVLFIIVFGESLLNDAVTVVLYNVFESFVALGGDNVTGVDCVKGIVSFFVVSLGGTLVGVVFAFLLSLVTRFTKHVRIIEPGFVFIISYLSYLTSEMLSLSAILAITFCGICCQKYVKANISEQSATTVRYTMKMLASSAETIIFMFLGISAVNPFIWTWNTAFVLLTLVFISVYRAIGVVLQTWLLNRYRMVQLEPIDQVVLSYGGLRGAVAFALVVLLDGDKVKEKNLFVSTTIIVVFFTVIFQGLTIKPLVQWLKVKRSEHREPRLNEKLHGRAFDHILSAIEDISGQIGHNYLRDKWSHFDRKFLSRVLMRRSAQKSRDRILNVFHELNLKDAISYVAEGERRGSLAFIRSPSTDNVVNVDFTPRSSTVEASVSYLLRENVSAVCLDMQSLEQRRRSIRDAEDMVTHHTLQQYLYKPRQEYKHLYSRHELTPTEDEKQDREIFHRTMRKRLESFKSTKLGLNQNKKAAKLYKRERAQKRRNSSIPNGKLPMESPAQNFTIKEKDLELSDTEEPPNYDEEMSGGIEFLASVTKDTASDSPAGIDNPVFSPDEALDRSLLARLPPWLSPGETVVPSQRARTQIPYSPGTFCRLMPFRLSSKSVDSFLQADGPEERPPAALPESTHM",
  "experiment": "Recovery of intracellular pH (pHi) after acidification in LAP1 cells stably expressing NHE3 (BCECF fluorescence, FLIPR)",
  "assay_type": "cell-based",
  "conditions": "LAP1 cells stably expressing NHE3; pH recovery after acidification; range 1 is % inhibition at 10 μM; read-out: Activity range (inhibitory effect on NHE3)",
  "data": [
    {"smiles": "COc1cccc(CC#N)c1O[C@H]1c2ccccc2CC[C@@H]1N1CCC[C@@H](N)C1", "note": "(racemic) [Example 229, {2-[rac-trans-(1,2)-2-((R)-3-aminopiperidin-1-yl)-1,2,3,4-tetrahydronaphthalen-1-yloxy]-3-methoxyphenyl}acetonitrile]", "values": [
      {"measurement": "inhibition at 10 µM", "value": "20 to 50", "unit": "%"}
    ]},
    {"smiles": "CS(=O)(=O)c1ccc(O[C@H]2c3ccccc3C[C@@H]2N2CCCC2)c(Cl)c1Cl", "note": "(racemic) [Example 263, 1-[rac-trans-(1,2)-1-(2,3-dichloro-4-methanesulfonylphenoxy)indan-2-yl]pyrrolidine]", "values": [
      {"measurement": "IC50", "value": "< 1000", "unit": "nM"}
    ]},
    {"smiles": "CS(=O)(=O)c1ccc(O[C@H]2c3ccccc3C[C@@H]2NCC2CCCC2)cc1", "note": "(racemic) [Example 705, Cyclopentylmethyl-[rac-trans-(1,2)-1-(4-methanesulfonyl-phenoxy)-indan-2-yl]-amine]", "values": [
      {"measurement": "IC50", "value": "1000 to 10000", "unit": "nM"}
    ]},
    {"smiles": "CC(=O)Nc1cccc(O[C@@H]2c3ccccc3C[C@H]2N2CCC[C@@H](N)C2)c1", "note": "(racemic) [Example 679, N-{3-[rac-trans-(1,2)-2-((R)-3-aminopiperidin-1-yl)indan-1-yloxy]phenyl}acetamide]", "values": [
      {"measurement": "IC50", "value": "< 1000", "unit": "nM"}
    ]},
    {"smiles": "CC(=O)Nc1cccc(O[C@H]2c3c(Cl)cc(Cl)cc3C[C@@H]2N(C)C)c1", "note": "(racemic) [Example 654, N-[3-(rac-trans-(1,2)-5,7-dichloro-2-dimethylaminoindan-1-yloxy)phenyl]acetamide]", "values": [
      {"measurement": "inhibition at 10 µM", "value": "20 to 50", "unit": "%"}
    ]},
    {"smiles": "CS(=O)(=O)c1ccc(O[C@H]2c3cc(Cl)cc(Cl)c3C[C@@H]2CN2CCCC2)cc1", "note": "(racemic) [Example 280, trans-4,6-dichloro-1-(4-methylsulfonyl-phenyloxy)-2-pyrrolidinylmethylindane]", "values": [
      {"measurement": "IC50", "value": "1000 to 10000", "unit": "nM"}
    ]},
    {"smiles": "c1ccc2c(c1)C[C@H](N1CCCC1)[C@H]2Oc1ccc(-c2nccs2)cc1", "note": "(racemic) [Example 364, 2-[4-(rac-trans-(1,2)-2-pyrrolidin-1-ylindan-1-yloxy)phenyl]thiazole]", "values": [
      {"measurement": "IC50", "value": "1000 to 10000", "unit": "nM"}
    ]},
    {"smiles": "N[C@H]1CCCN([C@H]2CCc3ccccc3[C@@H]2Oc2ccnc(Cl)c2)C1", "note": "(racemic) [Example 153, (S)-1-[rac-trans-(1,2)-1-(2-chloropyridin-4-yloxy)-1,2,3,4-tetrahydronaphthalen-2-yl]piperidin-3-ylamine]", "values": [
      {"measurement": "inhibition at 10 µM", "value": "20 to 50", "unit": "%"}
    ]},
    {"smiles": "O=[N+]([O-])c1ccc(O[C@@H]2c3ccccc3C[C@@H]2N2CCOCC2)c(Cl)c1", "note": "(racemic) [Example 478, 4-[(1R,2S)-1-(2-chloro-4-nitrophenoxy)indan-2-yl]morpholine]", "values": [
      {"measurement": "inhibition at 10 µM", "value": "20 to 50", "unit": "%"}
    ]},
    {"smiles": "CS(=O)(=O)c1nccn1-c1ccc(O[C@H]2c3cc(Cl)cc(Cl)c3C[C@@H]2N2CC[C@@H](O)C2)cc1", "note": "[Example 731, (R)-1-{trans-(1S,2S)-4,6-Dichloro-1-[4-(2-methanesulfonyl-imidazol-1-yl)-phenoxy]-indan-2-yl}-pyrrolidin-3-ol]", "values": [
      {"measurement": "IC50", "value": "< 1000", "unit": "nM"}
    ]},
    {"smiles": "Fc1ccc(O[C@H]2c3ccccc3CC[C@@H]2N2CCOCC2)c(-c2ccno2)c1", "note": "(racemic) [Example 507, 4-[rac-trans-(1,2)-1-(4-fluoro-2-isoxazol-5-ylphenoxy)-1,2,3,4-tetrahydronaphthalen-2-yl]morpholine]", "values": [
      {"measurement": "inhibition at 10 µM", "value": "20 to 50", "unit": "%"}
    ]},
    {"smiles": "CN(C)Cc1ccc(O[C@H]2c3ccccc3CC[C@@H]2N2CCC[C@@H](N)C2)cc1", "note": "(racemic) [Example 67, (R)-1-[rac-trans-(1,2)-1-(4-dimethylaminomethylphenoxy)-1,2,3,4-tetrahydronaphthalen-2-yl]piperidin-3-ylamine]", "values": [
      {"measurement": "inhibition at 10 µM", "value": "20 to 50", "unit": "%"}
    ]},
    {"smiles": "N#Cc1ccc(O[C@H]2c3ccccc3C[C@@H]2CN2CCCC2)cc1Cl", "note": "(racemic) [Example 391, 2-chloro-4-(2-pyrrolidin-1-ylmethylindan-1-yloxy)benzonitrile]", "values": [
      {"measurement": "inhibition at 10 µM", "value": "20 to 50", "unit": "%"}
    ]},
    {"smiles": "NS(=O)(=O)c1ccc(OC2c3ccccc3CC2N2CCCC2)c(Cl)c1Cl", "note": "(racemic) [Example 357, 2,3-dichloro-4-(rac-trans-(1,2)-2-pyrrolidin-1-ylindan-1-yloxy)benzenesulfonamide]", "values": [
      {"measurement": "IC50", "value": "< 1000", "unit": "nM"}
    ]},
    {"smiles": "CS(=O)(=O)c1ccc(OC2c3ccccc3CC2N2CCCC2)c(Cl)c1", "note": "(racemic) [Example 265, 1-[rac-trans-(1,2)-1-(2-chloro-4-methanesulfonylphenoxy)indan-2-yl]pyrrolidine]", "values": [
      {"measurement": "IC50", "value": "< 1000", "unit": "nM"}
    ]},
    {"smiles": "Cc1nnc(C)n1-c1ccc(O[C@H]2c3cc(Cl)cc(Cl)c3C[C@@H]2N2CCCC2)c(F)c1", "note": "[Example 499, 4-[4-(trans-(1S,2S)-4,6-dichloro-2-pyrrolidin-1-ylindan-1-yloxy)-3-fluorophenyl]-3,5-dimethyl-4H-[1,2,4]triazole]", "values": [
      {"measurement": "IC50", "value": "< 1000", "unit": "nM"}
    ]},
    {"smiles": "Cc1ccc2c(c1)C(Oc1ccc(S(N)(=O)=O)cc1)C(N1CCCC1)C2", "note": "(racemic) [Example 475, 4-(rac-trans-(1,2)-6-methyl-2-pyrrolidin-1-ylindan-1-yloxy)benzenesulfonamide]", "values": [
      {"measurement": "IC50", "value": "1000 to 10000", "unit": "nM"}
    ]},
    {"smiles": "CN(C)S(=O)(=O)c1ccc(N[C@H]2c3cc(Cl)cc(Cl)c3C[C@@H]2N2CC[C@@H](O)C2)cc1", "note": "[Example 481, 4-[(1S,2S)-4,6-dichloro-2-((R)-3-hydroxypyrrolidin-1-yl)indan-1-ylamino]-N,N-dimethylbenzenesulfonamide]", "values": [
      {"measurement": "IC50", "value": "1000 to 10000", "unit": "nM"}
    ]},
    {"smiles": "c1cc(CN2CCCCC2)cc(O[C@@H]2c3ccccc3C[C@H]2N2C[C@H]3CNC[C@H]3C2)c1", "note": "(racemic) [Example 14, 2-[rac-trans-(1,2)-1-(3-piperidin-1-ylmethylphenoxy)indan-2-yl]octahydropyrrolo[3,4-c]pyrrole]", "values": [
      {"measurement": "IC50", "value": "1000 to 10000", "unit": "nM"}
    ]},
    {"smiles": "CS(=O)(=O)c1ccc(O[C@H]2c3cc(Cl)cc(Cl)c3C[C@@H]2N2CCC[C@@H](NCCF)C2)cc1", "note": "[Example 222, {(R)-1-[trans-(1S,2S)-4,6-dichloro-1-(4-methanesulfonylphenoxy)indan-2-yl]piperidin-3-yl}-(2-fluoroethyl)amine]", "values": [
      {"measurement": "IC50", "value": "< 1000", "unit": "nM"}
    ]},
    {"smiles": "NS(=O)(=O)c1ccc(O[C@H]2c3cc(F)ccc3C[C@@H]2N2CCCC2)cc1", "note": "(racemic) [Example 474, 4-(rac-trans-(1,2)-6-fluoro-2-pyrrolidin-1-ylindan-1-yloxy)benzenesulfonamide]", "values": [
      {"measurement": "IC50", "value": "1000 to 10000", "unit": "nM"}
    ]},
    {"smiles": "O=C1OCCN1c1cccc(O[C@H]2c3cc(Cl)cc(Cl)c3C[C@@H]2N2CC[C@@H](O)C2)c1", "note": "[Example 419, 3-{3-[(1S,2S)-4,6-dichloro-2-((R)-3-hydroxypyrrolidin-1-yl)indan-1-yloxy]phenyl}oxazolidin-2-one]", "values": [
      {"measurement": "IC50", "value": "1000 to 10000", "unit": "nM"}
    ]},
    {"smiles": "Fc1ccc(O[C@H]2c3cc(Cl)cc(Cl)c3C[C@@H]2N2CCNCC2)c2ncccc12", "note": "[Example 592, 8-((1S,2S)-4,6-dichloro-2-piperazin-1-ylindan-1-yloxy)-5-fluoroquinoline]", "values": [
      {"measurement": "inhibition at 10 µM", "value": "20 to 50", "unit": "%"}
    ]},
    {"smiles": "Cc1nnc(C)n1-c1ccc(O[C@H]2c3cc(Cl)cc(F)c3C[C@@H]2N2CC[C@@H](O)C2)cc1", "note": "[Example 144, (R)-1-{trans-(1S,2S)-6-chloro-1-[4-(3,5-dimethyl-[1,2,4]triazol-4-yl)phenoxy]-4-fluoroindan-2-yl}pyrrolidin-3-ol]", "values": [
      {"measurement": "IC50", "value": "< 1000", "unit": "nM"}
    ]},
    {"smiles": "N[C@@H]1CCCN([C@H]2CCc3ccccc3[C@@H]2Oc2ccc(Cl)cc2-c2cc[nH]n2)C1", "note": "(racemic) [Example 119, (R)-1-{rac-trans-(1,2)-1-[4-chloro-2-(1H-pyrazol-3-yl)phenoxy]-1,2,3,4-tetrahydronaphthalen-2-yl}piperidin-3-ylamine]", "values": [
      {"measurement": "IC50", "value": "< 1000", "unit": "nM"}
    ]},
    {"smiles": "CN1CCCN([C@H]2Cc3c(Cl)cc(Cl)cc3[C@@H]2Oc2ccc(S(C)(=O)=O)cc2)CC1", "note": "[Example 305, 1-[trans-(1S,2S)-4,6-dichloro-1-(4-methanesulfonylphenoxy)indan-2-yl]-4-methyl-[1,4]diazepane]", "values": [
      {"measurement": "IC50", "value": "< 1000", "unit": "nM"}
    ]},
    {"smiles": "CCC(=O)c1cc(F)c(O[C@H]2c3ccccc3CC[C@@H]2N2CCC[C@H](N)C2)c(F)c1", "note": "(racemic) [Example 327, 1-{4-[rac-trans-(1,2)-2-((S)-3-aminopiperidin-1-yl)-1,2,3,4-tetrahydronaphthalen-1-yloxy]-3,5-difluorophenyl}propan-1-one]", "values": [
      {"measurement": "inhibition at 10 µM", "value": "20 to 50", "unit": "%"}
    ]},
    {"smiles": "C[C@H]1CN([C@H]2Cc3c(Cl)cc(Cl)cc3[C@@H]2Oc2ccc(S(C)(=O)=O)cc2)CCN1", "note": "[Example 197, (S)-1-[trans-(1S,2S)-4,6-dichloro-1-(4-methanesulfonylphenoxy)indan-2-yl]-3-methylpiperazine]", "values": [
      {"measurement": "IC50", "value": "< 1000", "unit": "nM"}
    ]},
    {"smiles": "CN1CCC2CN([C@H]3Cc4c(Cl)cc(Cl)cc4[C@@H]3Oc3ccc(S(C)(=O)=O)cc3)CC21", "note": "(single isomer, unassigned) [Example 581]", "values": [
      {"measurement": "IC50", "value": "< 1000", "unit": "nM"}
    ]},
    {"smiles": "c1cc(O[C@@H]2c3ccccc3C[C@H]2N2C[C@H]3CNC[C@H]3C2)cc(N2CCNCC2)c1", "note": "(racemic) [Example 13, 2-[rac-trans-(1,2)-1-(3-piperazin-1-ylphenoxy)indan-2-yl]octahydropyrrolo[3,4-c]pyrrole]", "values": [
      {"measurement": "IC50", "value": "1000 to 10000", "unit": "nM"}
    ]},
    {"smiles": "Fc1ccc(O[C@H]2c3cc(Cl)cc(Cl)c3C[C@@H]2N2CCC2)c2ncccc12", "note": "[Example 591, 8-((1S,2S)-2-azetidin-1-yl-4,6-dichloroindan-1-yloxy)-5-fluoroquinoline]", "values": [
      {"measurement": "inhibition at 10 µM", "value": "20 to 50", "unit": "%"}
    ]}
  ]
}
